From the NIST ThermoML archive (doi:10.1016/j.fluid.2012.01.023)

Tests used:
[1] = Liquid, Vibrating tube method
[2] = xn = mol fraction of the nth substance listed; details: Liquid; for viscosity: Electromagnetically Driven Piston; for mass density: Vibrating tube method

CCCCCCCCCCCCCC [tetradecane]
[1]
Details	mass density [kg/m3]
294.4 K, 5030 kPa	764
294.6 K, 8000 kPa	766
294.6 K, 9490 kPa	767
294.8 K, 2050 kPa	760
294.8 K, 3540 kPa	762
294.8 K, 6500 kPa	765
324 K, 3540 kPa	743
324 K, 5050 kPa	744
324 K, 6560 kPa	746
324.1 K, 2070 kPa	742
324.1 K, 8070 kPa	747
324.1 K, 9540 kPa	748
373.3 K, 5060 kPa	711
373.3 K, 6560 kPa	712
373.5 K, 2100 kPa	708
373.5 K, 3560 kPa	709
373.5 K, 8030 kPa	713
373.5 K, 9500 kPa	715
447.5 K, 4920 kPa	660
447.5 K, 6450 kPa	662
447.6 K, 1990 kPa	655
447.6 K, 3590 kPa	658
447.6 K, 7960 kPa	665
447.6 K, 9470 kPa	667

CCCCCCCCCCCCCC [tetradecane] + C
[2]
Details	mass density [kg/m3]	viscosity [mPa·s]
294.4 K, x2 = 0.232	740	1.48
294.6 K, x2 = 0.331	728	1.16
294.6 K, x2 = 0.364	723	1.05
294.8 K, x2 = 0.112	752	1.74
294.8 K, x2 = 0.176	746	1.64
294.8 K, x2 = 0.282	734	1.33
324 K, x2 = 0.159	726	0.97
324 K, x2 = 0.213	722	0.91
324 K, x2 = 0.264	716	0.82
324.1 K, x2 = 0.1	732	1.07
324.1 K, x2 = 0.306	711	0.75
324.1 K, x2 = 0.342	706	0.7
373.3 K, x2 = 0.193	689	0.51
373.3 K, x2 = 0.239	683	0.49
373.5 K, x2 = 0.09	699	0.57
373.5 K, x2 = 0.143	694	0.54
373.5 K, x2 = 0.279	678	0.46
373.5 K, x2 = 0.317	674	0.44
447.5 K, x2 = 0.176	636	0.28
447.5 K, x2 = 0.223	631	0.27
447.6 K, x2 = 0.078	646	0.31
447.6 K, x2 = 0.137	640	0.29
447.6 K, x2 = 0.266	625	0.25
447.6 K, x2 = 0.303	620	0.24
